Laboratory results as given in US12668785B2, “Combination treatment by administering a recombinant apyrase protein in conjunction with a P2Y12 inhibitor” (ASTRAZENECA AB, priority 2020, dated 2026).
Where two headings read alike, the source gives them in different places.

What was measured:
[1] = cited from earlier work; for time to peak plasma concentration: after oral administration; for mean elimination half-life: described in the drug label
platelet aggregation [2] = settings: cited from earlier work; for time for platelet activity to return to baseline following discontinuance: after discontinuance
animal models [3] = settings: cited from earlier work
[4] = test system: pig animal model of myocardial infarction; assay: Cardiac damage assessed by CMR in pig model of myocardial infarction; type: in vivo; settings: ticagrelor 180 mg p.o. 2 h prior MI, then 90 mg/bid
Experimental: (§1) Regular chow-fed Landrace pigs (n=20; weight≈40 kg) were randomly (Excel randomized function) distributed into four groups to receive: • I) Oral placebo-control (2 h prior Myocardial Infarction (MI) induction n=5) • II) A loading dose of ticagrelor (180 mg; n=5; p.o 2 h prior MI induction) • III) A loading dose of ticagrelor (180 mg; n=5; p.o 2 h prior MI induction and 1 mg/kg AZD3366 i.v. 10 min before reperfusion) • IV) A loading dose of ticagrelor (180 mg; n=5; p.o 2 h prior MI induction and 3 mg/kg AZD3366 i.v. 10 min before reperfusion)
(§2) Thereafter, pigs underwent temporary (90 minutes) balloon occlusion of the mid-left anterior descending coronary artery (experimental MI) and then reperfused, essentially as described in Vilahur et al. 2016. Throughout the following 42 days, the pigs received daily oral maintenance dosing of placebo (group I) or ticagrelor (90 mg/bid, groups II to IV) and serial Cardiac Magnetic Resonance (CMR) assessments were performed at day 3 (early remodeling phase) and day 42 (late remodeling phase) post-MI.
(§3) On the day of MI-induction animals received buprenorphine (0.03 mg/kg) and cefazoline (25 mg/kg) as prophylaxis for pain and wound infection, respectively, and then anaesthetized by administrating an intramuscular injection of ketamine (30 mg/kg), xylazine (2.2 mg/kg), and atropine (0.05 mg/kg). Once tranquilized, animals were endotracheally intubated and anesthesia was maintained by isoflurane inhalation (2%). Prior to starting the MI-induction procedure, an infusion of amiodarone (300 mg) and lidocaine (150 mg) in 1.000 mL of saline (250 mL/h) was initiated as prophylaxis for malignant ventricular arrhythmias through a line placed in the marginal ear vein and a bolus of heparin (100 U/kg) was administered to prevent clot formation in the catheters. […] Complete coronary ischemia (verified by angiography) was maintained for 90 minutes. At the end of the ischemic period, the balloon was completely deflated and animals were allowed to recover. Electrocardiogramand hemodynamic parameters were continuously recorded throughout the entire procedure and the echocardiographic system (Phillips iE33) equipped with a S5-1 sector array transducer was used prior- and post-MI induction to document the initial worsening of left ventricular ejection fraction (LVEF, M-mode analysis using the parasternal long-axis view; Vilahur et al. 2016).
(§4) CMR studies were conducted serially in all animals at Day 3 (early remodeling phase) and Day 42 (late remodeling phase) post-MI. The studies were performed on a 3.0T-CMR system (AchievaVR, Philips, Amsterdam, The Netherlands) and CMR image acquisition was carried out by a CMR specialized technician blinded in terms of treatment. For CMR studies, animals were anaesthetized with an intramuscular injection of a cocktail composed of ketamine, xylazine, and atropine and maintained by a continuous intravenous infusion of propofol to ensure mechanical ventilation. Once the animals were positioned in a head-first supine position with a flexible phased-array surface coil placed over the chest, ECG gating was used to acquire still images of the heart. The following dedicated CMR sequences were acquired in all cases: ‘cine’ Balanced Steady-State Free Precession (bSSFP) imaging sequence to assess wall motion (WM) and cardiac function; T2-weighted short-tau inversion recovery (T2w-STIR) sequence to assess myocardial edema; early gadolinium enhancement to study microvascular obstruction (no reflow phenomenon); and late gadolinium enhancement (LGE) to assess the amount and extent of myocardial necrosis. All the CMR studies followed the same scheme. First, scout images [T1-turbo field echo (TFE) sequence] were obtained to localize the true axes of the heart and define a field of view involving the whole heart. […]

[5] = test system: pig animal model of myocardial infarction; assay: Global and regional cardiac function assessed by CMR in pig model of myocardial infarction; type: in vivo
Experimental: as §1, §2, §3, §4

platelet aggregation [6] = assay: ADP-induced whole blood platelet aggregation (Multiplate impedance aggregometer) after in vivo dosing; set-up: species or system mouse; settings: for PA (AU*min): blood at t = 80 min, ADP 6.5 μmol/L
Experimental: Immediately after the blood sampling, 175 μL whole blood was added to the Multiplate® (Roche Diagnostics GmbH, Mannheim, Germany) mini test cells and mixed with 175 μL 37° C. pre-heated saline (9 mg/mL, Fresenius Kabi AG, Bad Homburg, Germany).

[7] = Plasma concentration of ticagrelor by LC-MS/MS; type: in vivo; settings: C57BI6, mouse, intravenous, t = 80 min, ticagrelor 1.2 mg/kg + 30 μg/kg*min
Experimental: The plasma concentration of ticagrelor was determined by means of a Liquid Chromatographic-Mass Spectrometric (LC-MS/MS) method.

C57BI6 mice [8] = assay: Mouse tail bleeding model (blood loss and bleeding time)
Experimental: (§5) C57BI6 mice were administered an intravenous bolus of AZD3366 or vehicle. In separate groups, mice were administered AZD3366 and ticagrelor or ticagrelor only as a bolus and continuous infusion of ticagrelor. The groups, doses and volumes of administration were as described in the following table:
(§6) Twenty min following dosing, bleeding was initiated by cutting 5 mm of the tip of the tail. The tail was rinsed with water and placed in a haemoglobin sensitive device. Light transmission through the blood and water mixture was recorded and converted to absorbance using the PharmLab software (V6.0, AstraZeneca R&D, Gothenburg, Sweden). Transmittance below 95% was defined as bleeding. Total blood loss, (area under the bleeding curve, t=20 min to t=80 min: cumulative blood loss vs time, absorbance*s, abs*s) and bleeding time (BT) were measured over 60 min from the start of tail cutting.

C57BI6 mice [9] = settings: mouse, in vivo, iv
Experimental: as §5, §6

[10] = test system: adenosine diphosphatase activity; settings: Moeckel et al. (2014); cited from earlier work
animal models [11] = settings: cited from earlier work; remark: listed apart in the source
[12] = test system: animal models of ischemic stroke; settings: Sun et al., 2011; Tan et al., 2014; cited from earlier work
[13] = in vivo; cited from earlier work
[14] = 3 Days Post-MI, ticagrelor 180 mg p.o. 2 h prior MI, then 90 mg/bid
[15] = 42 Days Post-MI, ticagrelor 180 mg p.o. 2 h prior MI, then 90 mg/bid
[16] = BSL (baseline), ticagrelor group
[17] = ticagrelor-treated animals, p<0.001
[18] = preclinical models (Moekel et al. 2015)

## CCCSc1nc(N[C@@H]2C[C@H]2c2ccc(F)c(F)c2)c2nnn([C@@H]3C[C@H](O)[C@@H](O)[C@H]3O)c2n1 [AR-C124910XX]
[1]
  time to peak plasma concentration: ~2.5 h
  mean elimination half-life: 9 h
Platelet aggregation [2]; in vivo
  potency of active metabolite relative to ticagrelor: approximately equipotent

## CSCCNc1nc(SCCC(F)(F)F)nc2c1ncn2[C@@H]1O[C@H](COP(=O)(O)OP(=O)(O)C(Cl)(Cl)P(=O)(O)O)[C@@H](O)[C@H]1O [Cangrelor]
[1]; from onset of infusion
  time to steady state plasma levels and platelet aggregation inhibition: ≤ 30 min
[1]; in vivo
  elimination half-life: 3 to 6 min
  plasma half-life: less than 9 min
Platelet aggregation [2]; after discontinuation
  time for platelet responses to return to baseline: ≤ 15 min
Platelet aggregation [2]; in vivo
  time to maximal platelet inhibition: ≤ 15 min

## COC(=O)[C@H](c1ccccc1Cl)N1CCc2sccc2C1 [Clopidogrel]
[1]; following a single dose of 75 mg
  elimination half-life: approximately 6 hours
[1]; following an oral dose, analyte: active metabolite
  time to peak plasma concentrations of the active metabolite: 30 to 60 min
Platelet aggregation [2]
  time for platelet activity to return to baseline following discontinuance: about 5 days
Platelet aggregation [2]; following oral administration of a single dose
  time at which dose-dependent platelet aggregation inhibition is observed: around 2 hours
Animal models [3]; FIG. 6 of Moeckel et al. (2014)
  cardioprotection / protective efficacy: not cardioprotective

## CC(=O)Oc1cc2c(s1)CCN(C(C(=O)C1CC1)c1ccccc1F)C2 (stereo not shown) [Prasugrel]
[1]; stated after the active metabolite of prasugrel
  elimination half-life: about 7.4 hours

## CCCSc1nc(N[C@@H]2C[C@H]2c2ccc(F)c(F)c2)c2nnn([C@@H]3C[C@H](OCCO)[C@@H](O)[C@H]3O)c2n1 [Ticagrelor, (1S,2S,3R,5S)-3-[7-[[(1R,2S)-2-(3,4-difluorophenyl)cyclopropyl]amino]-5-(propylthio)-3H-1,2,3-triazolo[4,5-d]pyrimidin-3-yl]-5-(2-hydroxyethoxy)-1,2-cyclopentanediol]
[4]; 3 Days Post-MI
  Edema % of LV mass: 13.1 ± 0.9 %
  Edema (gr): 10.5 ± 0.8 gr
  LV Mass: 81.3 ± 7.4
  Necrosis % of LV mass: 8.2 ± 1.2 %
  Necrosis (gr): 6.6 ± 1.0 gr
[4]; 42 Days Post-MI
  LV Mass: 108.6 ± 6.9
  Necrosis % of LV mass: 4.3 ± 0.8 %
  Necrosis (gr): 4.7 ± 1.0 gr
[5]; [14]
  LVEF %: 50.3 ± 2.9%
  Wall motion (mm): 1.88 mm
[5]; [15]
  LVEF %: 47.0 ± 4.4%
  Wall motion (mm): 2.55 mm
[5]; [16]
  LVEF %: 53.7 ± 2.8%
  Wall motion (mm): 2.66 mm
Platelet aggregation [6]; ticagrelor 1.2 mg/kg + 30 μg/kg*min
  PA (AU*min): 2 ± 2 AU*min
[7]
  concentration at 80 min: 8 ± 0.2 µM
[1]
  time to peak plasma concentration: approximately 1.5 hours
  mean elimination half-life: 7 h
Platelet aggregation [2]; after a dose
  time maximum inhibition of platelet aggregation is maintained: more than 8 hours
Platelet aggregation [2]
  time for platelet activity to return to baseline following discontinuance: 5 days
C57BI6 mice [8]; bleeding time over 60 min, ticagrelor bolus 1.2 mg/kg + infusion 30 μg/kg*min
  BT (s) Median: 3433a, d s
C57BI6 mice [8]; tail transection at t = 20 min, recorded 60 min, ticagrelor bolus 1.2 mg/kg + infusion 30 μg/kg*min
  Blood loss (abs*s) Median: 1157a, b, c abs*s
C57BI6 mice [8]; [17]
  BT increase as compared to vehicle: 5.2 fold
  Blood loss increase as compared to vehicle: 7.2 fold

## Clc1ccccc1CN1CCc2sccc2C1 [ticlopidine]
[1]
  time to peak plasma concentration: around 2 hours

B1: AZD3366: recombinant optimised form of soluble CD39L3 apyrase (R67G, T69R, N-terminal EVLP), amino acid sequence SEQ ID NO: 2 (protein)
chain: EVLPPGLKYGIVLDAGSSGTRVYVYQWPAEKENNTGVVSQTFKCSVKGSGISSYGNNPQDVPRAFEECMQKVKGQVPSHLHGSTPIHLGATAGMRLLRLQNETAANEVLESIQSYFKSQPFDFRGAQIISGQEEGVYGWITANYLMGNFLEKNLWHMWVHPHGVETTGALDLGGASTQISFVAGEKMDLNTSDIMQVSLYGYVYTLYTHSFQCYGRNEAEKKFLAMLLQNSPTKNHLTNPCYPRDYSISFTMGHVFDSLCTVDQRPESYNPNDVITFEGTGDPSLCKEKVASIFDFKACHDQETCSFDGVYQPKIKGPFVAFAGFYYTASALNLSGSFSLDTFNSSTWNFCSQNWSQLPLLLPKFDEVYARSYCFSANYIYHLFVNGYKFTEETWPQIHFEKEVGNSSIAWSLGYMLSLTNQIPAESPLIRLPIEPPV
modifications: N-terminal EVLP
Platelet aggregation [6]; AZD3366 1 and 3 mg/kg
  platelet aggregation (PA) inhibition: complete platelet aggregation (PA) inhibition
Platelet aggregation [6]; AZD3366 1.0 mg/kg
  PA (AU*min): 2 ± 2 AU*min
Platelet aggregation [6]; AZD3366 3.0 mg/kg
  PA (AU*min): 0 ± 0 AU*min
C57BI6 mice [9]; 1 mg/kg
  BT (s) Median: 589 s
  Blood loss (abs*s) Median: 157 abs*s
C57BI6 mice [9]; 3 mg/kg
  BT (s) Median: 1438 s
  Blood loss (abs*s) Median: 342e abs*s
[10]
  adenosine diphosphatase activity compared with native apyrase: four times higher
Animal models [3]; Moeckel et al. (2014)
  bleeding time: without an increase in bleeding time
  infarction size: decreased infarction size
Animal models [11]; animal models
  time until active after administration: ≤ 5 min
  time until return to baseline: 3 to 4 weeks
Animal models [11]; [18]
  time activity is maintained: more than 24 hours
  time to high levels of activity after administration: within minutes
[12]
  reperfusion, re-occlusion and intracerebral bleeding: enhance reperfusion, reduce re-occlusion and reduce intracerebral bleeding
[13]
  plasma half-life compared with native apyrase: 50 times
